Laboratory results published in paper PMC10076643, “Design, synthesis and anticancer activity studies of 3-(coumarin-3-yl)-acrolein derivatives: Evidenced by integrating network pharmacology and vitro assay” (Frontiers in Pharmacology, 2023).

Key:
PI3K in KB cells = test: Western blot, PI3K; format: cell-based, human; settings: 0.40, 0.80, 1.60 μM, 24 h
From the text: (§1) Based on the results of network pharmacology, the key proteins related to PI3K/AKT pathway were detected by Western blotting to explore the antitumor mechanism of compound 6e. […] Such an inconsistency might be due to a compensatory increase in PI3K level after the reduction of AKT phosphorylation level. Additionally, the active-caspase 3 protein, anti-apoptosis protein Bcl-2 and pro-apoptosis protein Bax were further analyzed. Caspase-3 normally exists in the cytoplasm as zymogen. During the early stage of apoptosis, caspase-3 (32 KD) is cleaved to the active 17-kD caspase-3 fragment, which is responsible for morphological and biochemical changes in apoptosis. Bcl-2 and Bax are the […] located on the mitochondrial membrane and capable of controlling the MMP (ΔΨm) and the activation of caspase cascade.
(§2) A total of 4 × 10^5 KB cells were seeded into 6-well and grown for overnight. Then the cells adherent to the wall were treated with compound 6e in different concentrations (0, 0.40, 0.80, 1.60 μM) for 24 h. After that, cells were collected, SDS lysate, 100X protease inhibitor and 50X phosphorylation inhibitor were added in a certain proportion to lyse the cells. The protein content was determined by BCA reagent (Beyotime, China) according to the standard curve. […]

[1] = system: LO2 (human normal hepatocytes); test: MTT antiproliferative assay, LO2 normal cells; format: cell-based; settings: Hepatocyte, 72 h
From the text: (§3) All the synthesized compounds were screened for in vitro antiproliferative activity against four human cancer cell lines A549 (human lung cancer cell line), KB (human oral epidermoid carcinoma cell line), Hela (human cervical carcinoma cell line), MCF-7 (human breast cancer cell line) and two human normal cell lines HUVEC (human umbilical vein endothelial cell) and LO2 (human normal hepatocytes) through the 3-(4,5-dimethyl-2-thiazolyl)-2,5-diphenyl-2-H-tetrazolium bromide (MTT) assay.
(§4) Non-small-cell lung cancer (A549), oral epidermoid carcinoma (KB), cervical cancer (Hela) and breast cancer (MCF-7) cells were purchased from the American Type Culture Collection (ATCC, America). Human umbilical vein endothelial cell (HUVEC) and human normal hepatocytes (LO2) cells were provided by Guangzhou Medical University (Guangzhou, China). A549 and KB cells were cultured in RMPI-1640 medium (Gibco, America). Hela, MCF-7 and LO2 cells were cultured in DMEM medium (Gibco, America). HUVEC cells were cultured in Ham’s F-12K medium (Gibco, America). All the mediums were supplemented with 10% fetal bovine serum (FBS) (BI, State of Israel), 100 U/mL penicillin and 100 μg/mL streptomycin (Gibco, America), and all the cells were incubated in a sterile incubator at 37°C in an environment of 5% CO2. The tested compounds were dissolved in dimethyl sulfoxide (DMSO) at a concentration of 10 mM, and then diluted into different concentration of solutions by culture medium. The final concentration of DMSO was <0.01% (v/v) in all drug treatment groups to avoid the toxicity in the biological system. Untreated cells were used as a blank control and 5-fluorouracil treated cells were used as a positive control.
(§5) The incubated tumor cells were planted into 96-well plates (4×10^3 cells/well). After 24 h, the cells were adherent to the wall and treated with the compound 6e in different concentrations (0.78, 1.56, 3.12, 6.25, 12.50, 25.00, and 50.00 μM) for 72 h. Afterwards, the medium was supplemented with 10 µL MTT solution. After 4 h, the culture medium was removed and 100 µL DMSO was added. The absorbance was determined at the wavelength of 540 nm and 655 nm using a microplate reader (BioTek Epoch, America). The results were collected from three independent experiments. The IC50 was then calculated by using GraphPad Prism Software (version 7.0) and non-linear regression (curve fit).

KB cells [2] = test: Scratch wound healing assay; format: cell-based, human; settings: different concentrations (0.5 IC50, IC50, 2 IC50), after 24 h
Protocol: Wound healing assay and transwell assay were performed to investigate the effect of compound 6e on the migratory capability of KB cells.
In vitro wound-healing assay, KB cells (5 × 10^5 cells/well) were seeded into 6-well plates and incubated at 37 °C in humidified atmosphere with 5% CO2 for 12 h. As the cells were adherent to the wall and the degree of fusion reached more than 90%, cell layers were gently scratched with a 200 μL pipette tip. […] Images of cells were photographed with the inverted fluorescence microscope (Leica DMi8, Germany) at 0 h and 24 h. The areas that were not covered by cells in the scratch wound were quantified by using ImageJ. Then the values obtained in each group were expressed by the percentage of wound closure of cells in the control group. The experiments were performed in triplicate.

Bax in KB cells = test: Western blot, Bax; format: cell-based, human; settings: 0.40 μM, 24 h
From the text: as §1, §2

[3] = system: A549 (human lung cancer cell line); test: MTT antiproliferative assay, A549; format: cell-based; settings: Homo sapiens, A549; MTT, 72 h
From the text: as §3, §4, §5

KB cells [4] = test: Transwell invasion assay (Matrigel); format: cell-based, human; settings: 2 IC50, 48 h
Protocol: Transwell invasion assay was carried out to evaluate the effect of compound 6e on KB cell invasion.
For invasion assay, the transwells (8 μm pore size, Corning Incorporated) were precoated with 40 μL Matrigel for 2 h at 37°C to achieve solidification. KB cells were harvested and resuspended in serum-free medium, treated with different concentrations of compound 6e (0.5 IC50, IC50, 2 IC50), and added into the upper wells of the transwell chamber at density of 1×10^5 cells/200 μL. Then 600 μL of RPMI-1640 containing 10% FBS was added into each lower chamber. After 48 h, the invaded cells in the lower champers were fixed with paraformaldehyde for 1 h and stained with crystal violet solution for 2 h. The non-invading cells in the upper chambers of the transwell plates were scraped away by cotton swabs. Next, the chambers were washed with PBS. The invaded cells were then imaged with the inverted fluorescence microscope (Leica DMi8, Germany) and counted with ImageJ software for three independent fields randomly.

[5] = system: MCF-7 (human breast cancer cell line); test: MTT antiproliferative assay, MCF-7; format: cell-based; settings: MCF7, 72 h
From the text: as §3, §4, §5

[6] = system: AKT phosphorylation in KB cells; test: Western blot, pAKT/AKT; format: cell-based, human; settings: increased concentration (0.40, 0.80, 1.60 μM), 24 h
From the text: as §1, §2

O=CC=C(Cl)c1cc2ccc(OCc3ccccc3)cc2oc1=O [Compound 6e, 3-(7-(Benzyloxy)-2-oxo-2H-chromen-3-yl)-3-chloroacrylaldehyde]
relative PI3K level among the control and treatment groups (PI3K in KB cells): not significantly different | IC50 [1]: 50.13 ± 0.03 µM | melting point: 223 to 225 °C | scratched gaps of KB cells (KB cells [2]): wider than that of the control group and 5-FU group | expression of Bax compared with the control group (Bax in KB cells): upregulated | IC50 [3]: 7.4 ± 0.2 µM | KB cell invasion reduced (KB cells [4]): more than 64% | IC50 [5]: 14.8 ± 0.28 µM | pAKT/AKT ratios [6]: remarkably decreased
